Patent US6900223B2, “Dihydrodipyrazolopyridinone inhibitors of B7-1” (Wyeth, priority 2002, dated 2005)

target: T1, B7-1/CD28 binding (Homo sapiens, UniProt P33681); experiment: CD28/B7-1 ELISA (B7-1/CD28 binding inhibition); details: CD28-Fc coated wells, B7-1-Fc-biotin/streptavidin-alkaline phosphatase detection complex, 1% DMSO
T1 sequence (P33681 35-242 limits assumed): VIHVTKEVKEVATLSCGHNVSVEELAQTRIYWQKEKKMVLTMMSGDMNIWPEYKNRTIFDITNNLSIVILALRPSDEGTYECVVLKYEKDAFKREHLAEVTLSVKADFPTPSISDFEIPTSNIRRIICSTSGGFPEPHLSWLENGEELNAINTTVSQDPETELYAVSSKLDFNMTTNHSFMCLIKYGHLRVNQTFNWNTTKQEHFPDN
Method: Evaluation of B7-1/CD28 Binding Inhibition for Test Compounds
Wells are coated with 300 ng CD28-Fc in carbonate buffer (pH 9.4) overnight at 4° C., blocked with 1% bovine serum albumin in tris-buffered saline (TBS) for 1 h at 22° C. and washed 3 times in TBS prior to assay. The detection complex is formed as follows: B7-1-Fc-biotin, prepared using NHS-LC-biotin (Pierce #21335) according to the manufacturers instructions (4.1 moles biotin/mole Fc), is added at 0.8 ug/ml to streptavidin-alkaline phosphatase (Caltag Sa1008 at 1:1000 in TBS. Gradient dilutions of test compound in dimethylsulfoxide (1% final) are added to this complex and incubated 30 min. at 22° C. Detection complex (+/−inhibitors) is then added to the CD28 coated wells for 25 min. at 22° C., washed 5 times with TBS, developed with the calorimetric substrate pNPP (Pierce #34045) in diethanolamine/MgCl2 buffer (pH 9.5) and read at 405 nm. The inhibition constant (IC50) is calculated by subtracting background binding and comparing to uninhibited (DMSO alone) controls. The inhibition constant represents the concentration of test compound required to achieve 50% inhibition.

| IC50 | SMILES |
| --- | --- |
| 50 nM | Cn1ncc2c3[nH]n(-c4ccc(I)cc4)c(=O)c3c(-c3cccc(C(F)(F)F)c3)nc21 [Example 16] |
| 66 nM | Cc1cc(C)cc(-n2[nH]c3c(c(-c4cccc(C(F)(F)F)c4)nc4c3cnn4C)c2=O)c1 [Example 20] |
| 48 nM | Cn1ncc2c3[nH]n(-c4cccc(C(=O)O)c4)c(=O)c3c(-c3cccc(C(F)(F)F)c3)nc21 [Example 21] |
| 8 nM | COC(=O)c1cccc(-n2[nH]c3c(c(-c4cccc(C(F)(F)F)c4)nc4c3cnn4C)c2=O)c1 [Example 22] |
| 7 nM | Cn1ncc2c3[nH]n(-c4ccc(Cl)c(C(=O)O)c4)c(=O)c3c(-c3cccc(C(F)(F)F)c3)nc21 [Example 25] |
| 120 nM | COC(=O)c1cc(-n2[nH]c3c(c(-c4cccc(C(F)(F)F)c4)nc4c3cnn4C)c2=O)ccc1Cl [Example 26] |
| 170 nM | CCOC(=O)c1cccc(-n2[nH]c3c(c(-c4cccc(C(F)(F)F)c4)nc4c3cnn4C)c2=O)c1 [Example 28] |
| 41 nM | COC(=O)c1ccc(-n2[nH]c3c(c(-c4cccc(C(F)(F)F)c4)nc4c3cnn4C)c2=O)cc1Cl [Example 29] |
| 16 nM | Cn1ncc2c3[nH]n(-c4ccc(C(=O)O)c(Cl)c4)c(=O)c3c(-c3cccc(C(F)(F)F)c3)nc21 [Example 30] |
| 9 nM | COC(=O)c1ccc(-n2[nH]c3c(c(-c4cccc(Br)c4)nc4c3cnn4C)c2=O)cc1Cl [Example 31] |
| 9 nM | Cn1ncc2c3[nH]n(-c4ccc(C(=O)O)c(Cl)c4)c(=O)c3c(-c3cccc(Br)c3)nc21 [Example 32] |
| 190 nM | Cn1ncc2c3[nH]n(-c4ccc(C(=O)O)cc4)c(=O)c3c(-c3cccc(C(F)(F)F)c3)nc21 [Example 33] |
| 31 nM | COC(=O)c1ccc(-n2[nH]c3c(c(-c4cccc(C(F)(F)F)c4)nc4c3cnn4C)c2=O)cc1 [Example 34] |
| 98 nM | COC(=O)c1cc(-n2[nH]c3c(c(-c4cccc(C(F)(F)F)c4)nc4c3cnn4C)c2=O)ccc1F [Example 35] |
| 70 nM | Cn1ncc2c3[nH]n(-c4ccc(F)c(C(=O)O)c4)c(=O)c3c(-c3cccc(C(F)(F)F)c3)nc21 [Example 36] |
| 12 nM | COC(=O)c1ccc(-n2[nH]c3c(c(-c4cccc(C(F)(F)F)c4)nc4c3cnn4C)c2=O)cc1F [Example 37] |
| 210 nM | Cn1ncc2c3[nH]n(-c4ccc(C(=O)O)c(F)c4)c(=O)c3c(-c3cccc(C(F)(F)F)c3)nc21 [Example 38] |
| 50 nM | Cn1ncc2c3[nH]n(-c4ccc(F)cc4)c(=O)c3c(-c3cccc(C(F)(F)F)c3)nc21 [Example 39] |
| 100 nM | Cn1ncc2c3[nH]n(-c4ccc([N+](=O)[O-])cc4)c(=O)c3c(-c3cccc(C(F)(F)F)c3)nc21 [Example 40] |
| 20 nM | Cn1ncc2c3[nH]n(-c4cccc(F)c4)c(=O)c3c(-c3cccc(C(F)(F)F)c3)nc21 [Example 43] |
| 1000 nM | Cn1ncc2c3[nH]n(-c4ccc(F)cc4F)c(=O)c3c(-c3cccc(C(F)(F)F)c3)nc21 [Example 44] |
| 50 nM | Cn1ncc2c3[nH]n(-c4ccc(N)cc4)c(=O)c3c(-c3cccc(C(F)(F)F)c3)nc21 [Example 48] |
| 1700 nM | Cc1csc(C(=O)O)c1-n1[nH]c2c(c(-c3cccc(C(F)(F)F)c3)nc3c2cnn3C)c1=O [Example 52] |

The remaining lines, values behind:

| SMILES | IC50 |
| --- | --- |
| Cn1ncc2c3[nH]n(-c4cccc(F)c4)c(=O)c3c(-c3cncc(Br)c3)nc21 [Example 4, 4-(5-Bromo-3-pyridinyl)-2-(3-fluorophenyl)-6-methyl-1,6-dihydrodipyrazalo[3,4-b:3,4-d]pyridin-3(2H)-one] | 20 nM |
| Cn1ncc2c3[nH]n(-c4ccc(Cl)cc4)c(=O)c3c(-c3ccccc3)nc21 [Example 6] | 1800 nM |
| O=c1c2c(-c3cccc(C(F)(F)F)c3)nc3c(cnn3-c3ccccc3)c2[nH]n1-c1cccc(F)c1 [Example 7] | 750 nM |
| Cn1ncc2c3[nH]n(-c4ccc(F)cc4)c(=O)c3c(-c3cncc(Br)c3)nc21 [Example 8] | 200 nM |
| Cn1ncc2c3[nH]n(-c4ccccn4)c(=O)c3c(-c3cncc(Br)c3)nc21 [Example 9] | 400 nM |
| Cc1cccc(-c2nc3c(cnn3C)c3[nH]n(-c4ccccn4)c(=O)c23)c1 [Example 10] | 150 nM |
| Cc1cc(-n2[nH]c3c(c(-c4cccc(Br)c4)nc4c3cnn4C)c2=O)cc(C(F)(F)F)c1 [Example 12] | 190 nM |
| Cn1ncc2c3[nH]n(-c4ccccn4)c(=O)c3c(-c3cccc(Br)c3)nc21 [Example 13] | 70 nM |
| Cc1cc(C)cc(-n2[nH]c3c(c(-c4cccc(Br)c4)nc4c3cnn4C)c2=O)c1 [Example 17] | 58 nM |
| Cn1ncc2c3[nH]n(-c4ccc([N+](=O)[O-])cc4)c(=O)c3c(-c3cccc(Br)c3)nc21 [Example 18] | 12 nM |
| Cc1cccc(-c2nc3c(cnn3C)c3[nH]n(-c4cc(C)cc(C)c4)c(=O)c23)c1 [Example 19] | 990 nM |
| CCOc1ccc(-n2[nH]c3c(c(-c4cccc(C(F)(F)F)c4)nc4c3cnn4C)c2=O)nn1 [Example 23] | 290 nM |
| Cn1ncc2c3[nH]n(-c4ccc(=O)[nH]n4)c(=O)c3c(-c3cccc(C(F)(F)F)c3)nc21 [Example 24] | 72 nM |
| Cn1ncc2c3[nH]n(-c4ccccc4F)c(=O)c3c(-c3cccc(C(F)(F)F)c3)nc21 [Example 41] | 400 nM |
| Cn1ncc2c3[nH]n(-c4ccc(C(C)(C)C)cc4)c(=O)c3c(-c3cccc(C(F)(F)F)c3)nc21 [Example 42] | 900 nM |
| Cn1ncc2c3[nH]n(-c4nccc(C(F)(F)F)n4)c(=O)c3c(-c3cccc(C(F)(F)F)c3)nc21 [Example 45] | 1200 nM |
| Cn1ncc2c3[nH]n(-c4ccc(F)cc4)c(=O)c3c(-c3cccc([N+](=O)[O-])c3)nc21 [Example 46] | 50 nM |
| Cn1ncc2c3[nH]n(-c4ccc(F)cc4)c(=O)c3c(-c3cccc(N)c3)nc21 [Example 47] | 400 nM |
| Cn1ncc2c3[nH]n(-c4cccc(F)c4)c(=O)c3c(-c3cccc([N+](=O)[O-])c3)nc21 [Example 50] | 4 nM |

| SMILES | IC50 |
| --- | --- |
| CCOC(=O)c1scc(C)c1-n1[nH]c2c(c(-c3cccc(C(F)(F)F)c3)nc3c2cnn3C)c1=O [Example 51] | 2100 nM |
| Cn1ncc2c3[nH]n(-c4cccc(F)c4)c(=O)c3c(-c3cccc(C#N)c3)nc21 [Example 53] | 30 nM |
| Cn1ncc2c3[nH]n(-c4cccc(F)c4)c(=O)c3c(-c3cccc(C(N)=O)c3)nc21 [Example 54] | 1500 nM |
| Cn1ncc2c3[nH]n(-c4cccc(F)c4)c(=O)c3c(-c3cccc(S(C)(=O)=O)c3)nc21 [Example 55] | 1900 nM |
| Cn1ncc2c3[nH]n(-c4cccc(F)c4)c(=O)c3c(-c3cccc([S+](C)[O-])c3)nc21 (stereo not shown) [Example 56] | 330 nM |
| Cn1ncc2c3[nH]n(-c4ccc(-c5ccccc5)cc4)c(=O)c3c(-c3cccc(C(F)(F)F)c3)nc21 [Example 57] | 39 nM |
| Cn1ncc2c3[nH]n(-c4ccc(OCc5ccccc5)cc4)c(=O)c3c(-c3cccc(C(F)(F)F)c3)nc21 [Example 58] | 25 nM |
| Cn1ncc2c3[nH]n(-c4cccc(OCc5ccccc5)c4)c(=O)c3c(-c3cccc(C(F)(F)F)c3)nc21 [Example 59] | 20 nM |
| Cn1ncc2c3[nH]n(-c4cccc(F)c4)c(=O)c3c(-c3cccc(C(=O)O)c3)nc21 [Example 60] | 70 nM |
| O=c1c2c(-c3cccc(C(F)(F)F)c3)nc3c(cnn3Cc3ccccc3)c2[nH]n1-c1ccc(F)cc1 [Example 64] | 70 nM |
| O=c1c2c(-c3cccc(C(F)(F)F)c3)nc3[nH]ncc3c2[nH]n1-c1ccc(F)cc1 [Example 65] | 50 nM |
| O=c1c2c(-c3cccc(C(F)(F)F)c3)nc3c(cnn3CCO)c2[nH]n1-c1ccc(F)cc1 [Example 66] | 800 nM |
| CCn1ncc2c3[nH]n(-c4ccc(F)cc4)c(=O)c3c(-c3cccc(C(F)(F)F)c3)nc21 [Example 67] | 780 nM |
| CCCn1ncc2c3[nH]n(-c4ccc(F)cc4)c(=O)c3c(-c3cccc(C(F)(F)F)c3)nc21 [Example 68] | 90 nM |
| Cn1ncc2c3[nH]n(-c4cccc(F)c4)c(=O)c3c(-c3cc(Cl)cc(Cl)c3)nc21 [Example 73, 4-(3,5-Dichlorophenyl)-2-(3-fluorophenyl)-6-methyl-1,6-dihydrodypyrazolo[3,4-b:3′,4′-d]pyridin-3(2H)-one] | 40 nM |
| Cn1ncc2c3[nH]n(-c4cccc(F)c4)c(=O)c3c(-c3ccsc3)nc21 [Example 74] | 105 nM |
| COc1cccc(-c2nc3c(cnn3C)c3[nH]n(-c4cccc(F)c4)c(=O)c23)c1 [Example 75] | 82 nM |
| Cn1ncc2c3[nH]n(-c4cccc(F)c4)c(=O)c3c(-c3ccc4c(c3)OCO4)nc21 [Example 76] | 295 nM |
| CC1CN(c2nc3c(cnn3C)c3[nH]n(-c4cccc(F)c4)c(=O)c23)CC(C)O1 (stereo not shown) [Example 81, 4-(2,6-Dimethyl-4-morpholinyl)-2-(3-fluorophenyl)-6-methyl-1,6-dihydrodipyrazolo[3,4-b:3′-4′-d]pyridin-3(2H)-one] | 188 nM |
